In brackets after ≈: the same amount, converted by molar mass.
Key:
Anas platyrhynchos = settings: for LC50: short-term, oral, feed, mortality
Colinus virginianus = settings: acute, oral, mortality
Daphnia magna = settings: chronic/long-term; duration: 21 days; reproduction
Lepomis macrochirus = settings: acute; duration: 96 hours; mortality
Tagia sp. = settings: for LC50: acute, mortality
Apis mellifera = settings: acute, duration: 48 hours, mortality
Plant = settings: not reported; no effects
Rattus norvegicus = settings: for NOAEL: reproduction developmental
Aphidius rhopalosiphi = experiment: LR50; higher = less toxic; settings: not reported; mortality
Orius insidiosus = experiment: LR50; higher = less toxic; settings: not reported; mortality

## CNC(=O)ON=C(C)SC [Methomyl]
Anas platyrhynchos
  LC50: 658 mg/kg-day
Colinus virginianus
  LD50: 24.2 mg/kg-day
Daphnia magna
  NOEC: 0.0016 mg/L
Lepomis macrochirus
  LC50: 0.62 µg/mL (≈ 3.82 µM)
Tagia sp.; duration: 14 days
  LC50: 19 mg/kg

## CSC(C)=NOC(=O)N(C)SN(C)C(=O)ON=C(C)SC [Thiodicarb]
Anas platyrhynchos; reproductive
  NOEC: 500 mg/kg
Anas platyrhynchos
  LC50: > 5620 mg/kg
Apis mellifera; dermal
  LD50: 3.1 µg/piece
Apis mellifera; oral, unspecified
  LD50: 0.153 µg/piece
Colinus virginianus; diet
  LC50: > 5620 mg/kg
Colinus virginianus
  LD50: 2020 mg/kg-day
Lepomis macrochirus
  LC50: 1.4 µg/mL (≈ 3.95 µM)
Plant
  LEL: 950 g/ha
Rattus norvegicus; acute, oral, gavage, neurology
  LOAEL: < 5 mg/kg-day
Rattus norvegicus; acute, oral, mortality
  LD50: 50 mg/kg-day
Rattus norvegicus; body weight
  NOAEL: 1 mg/kg-day
Rattus norvegicus; oral, diet, mortality
  NOAEL: 7 mg/kg-day
Rattus norvegicus; reproduction
  NOAEL: 84 mg/kg-day
Tagia sp.
  LC50: 38.5 mg/kg
Tagia sp.; chronic/long-term
  NOEC: 2 mg/kg
Aphidius rhopalosiphi
  LR50: 0.4 g/ha
Orius insidiosus
  LR50: 25.4 g/ha

Source: EPA's ToxValDB 9.5 (doi:10.2903/j.efsa.2006.55r)
